In PMC5729930, “Bitopic fluorescent antagonists of the A2A adenosine receptor based on pyrazolo[4,3-e][1,2,4]triazolo[1,5-c]pyrimidin-5-amine functionalized congeners” (MedChemComm, 2017):
Read-outs that look alike come from different tables or passages of the source. Marks after values point to notes of the source that are not given here.

Experiments:
[1] = biological target: T1, A1AR (Homo sapiens, UniProt P30542); experiment: Competition radioligand binding, hA1AR ([3H]DPCPX); details: [3H]DPCPX 0.5 nM; for Ki: HEK-293 membranes, 1 h 25 °C, mean ± SEM, read-out: Affinity, Ki, A1; for inhibition at 10 µM: percent inhibition at 10 μM
T1 construct: expressed in transfected cells
T1 sequence (P30542 1-326): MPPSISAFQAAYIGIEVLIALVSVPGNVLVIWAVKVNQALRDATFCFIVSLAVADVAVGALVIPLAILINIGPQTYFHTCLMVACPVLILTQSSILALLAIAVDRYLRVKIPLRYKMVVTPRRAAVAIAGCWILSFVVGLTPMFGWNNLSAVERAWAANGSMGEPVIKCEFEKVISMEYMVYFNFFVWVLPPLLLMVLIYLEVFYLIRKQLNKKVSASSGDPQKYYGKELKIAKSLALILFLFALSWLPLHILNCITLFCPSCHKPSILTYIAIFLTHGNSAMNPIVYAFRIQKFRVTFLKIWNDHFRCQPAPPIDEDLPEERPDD
Method: (§1) The affinity of the amine congeners and other antagonists was measured using standard radioligand binding assays for hA1, A2A and A3ARs (Table 1).[1],[13],[14],[22] Membranes of human embryonic kidney (HEK)293 cells expressing the AR of interest were used in the assay. Primary amine congeners 6a–6d containing spacers of 2–5 methylenes were similar in terms of hA2AAR affinity (Ki 6–9 nM), with the butylamino congener 6c displaying the highest A2AAR selectivity in the series. The affinity of this compound for the hA3AR was determined to be 6.0 μM, with only slightly higher hA1AR affinity. Homologation to 6 methylenes in compound 6e lowered A2AAR affinity. […] No dependence of the affinity on the chain length was evident when comparing AlexaFluor647 conjugates 9 and 10. […]
(§2) Radioligand binding assays: Cell membranes were prepared as reported.1
(§3) Binding assays were carried out using standard radioligands and membrane preparations from HEK-293 cells stably expressing the human (h) A1, A2A or A3ARs or mouse (m) A1, A2A or A3ARs. The radioligands used were: A1AR, [3H]8-cyclopentyl-1,3-dipropylxanthine 14; A2AAR, [3H]2; A3AR, [125I]N6-(4-amino-3-iodobenzyl)adenosine-5′-N-methyluronamide 16. The radioligand for archival A2AAR affinity data presented in Table 1 was [3H]2-[p-(2-carboxyethyl)phenyl-ethylamino]-5′-N-ethylcarboxamidoadenosine 15. Nonspecific binding was determined using 10 µM 8-[4-[[[[(2-aminoethyl)amino]carbonyl]methyl]oxy]phenyl]-1,3-dipropylxanthine 17 (A1AR and A2AAR) or 10 µM adenosine-5′-N-ethyluronamide 18 (A3AR). HEK-293 cells expressing recombinant mA1, A2A, or A3AR […]
(§4) Protein was determined as reported.2 In all the binding experiments, IC50 values and Ki values were calculated using GraphPad Prism software (San Diego, CA). Values are expressed as mean±SEM. […]
(§5) Med. Chem. Comm., 2015, 6:555-563.
(§6) 2. Bradford, M. M. A rapid and sensitive method for the quantitation of microgram quantities of protein utilizing the principle of protein -dye binding. Anal. Biochem. 1976, 72, 248-254.

[2] = biological target: T2, A2AAR (Homo sapiens, UniProt P29274); experiment: Competition radioligand binding, hA2AAR ([3H]ZM241385 or [3H]CGS21680); details: human A2AAR, HEK-293 membranes, [3H]ZM241385 1.0 nM, 1 h 25 °C, mean ± SEM; read-out: Affinity, Ki, A2A
T2 construct: expressed in transfected cells
Method: (§7) The affinity of the amine congeners and other antagonists was measured using standard radioligand binding assays for hA1, A2A and A3ARs (Table 1).[1],[13],[14],[22] Membranes of human embryonic kidney (HEK)293 cells expressing the AR of interest were used in the assay. Primary amine congeners 6a–6d containing spacers of 2–5 methylenes were similar in terms of hA2AAR affinity (Ki 6–9 nM), with the butylamino congener 6c displaying the highest A2AAR selectivity in the series. The affinity of this compound for the hA3AR was determined to be 6.0 μM, with only slightly higher hA1AR affinity. Homologation to 6 methylenes in compound 6e lowered A2AAR affinity. […] No dependence of the affinity on the chain length was evident when comparing AlexaFluor647 conjugates 9 and 10.
Fig. 1 Antagonist radioligand ([^3H]2, 1.0 nM) binding inhibition curves for the hA2AAR for four antagonist fluorescent conjugates. Compound numbers: MRS7322 9, MRS7395 10, MRS7396 11 and MRS7416 12. Membranes from HEK-293 cells expressing the hA2AAR were used, and their incubation was performed for 1 h at 25 °C. Results are expressed as the mean ± SEM.
(§8) Cell culture for membrane binding assays and flow cytometry: HEK-293 cells stably expressing the A2AAR were grown in Dulbecco’s Modified Eagle’s Medium (DMEM) with 10% FBS, 100 units/ml penicillin, […] streptomycin, 2 mM L-glutamine and 0.500 mg/mL G418 Sulfate (Geneticin). […]
as §2, §3, §4, §5, §6

[3] = biological target: T3, A3AR (Homo sapiens, UniProt P0DMS8); experiment: Competition radioligand binding, hA3AR ([125I]I-AB-MECA); details: for inhibition at 10 µM: percent inhibition at 10 μM, read-out: % inhib, A3
T3 construct: expressed in transfected cells
T3 sequence (P0DMS8 1-318): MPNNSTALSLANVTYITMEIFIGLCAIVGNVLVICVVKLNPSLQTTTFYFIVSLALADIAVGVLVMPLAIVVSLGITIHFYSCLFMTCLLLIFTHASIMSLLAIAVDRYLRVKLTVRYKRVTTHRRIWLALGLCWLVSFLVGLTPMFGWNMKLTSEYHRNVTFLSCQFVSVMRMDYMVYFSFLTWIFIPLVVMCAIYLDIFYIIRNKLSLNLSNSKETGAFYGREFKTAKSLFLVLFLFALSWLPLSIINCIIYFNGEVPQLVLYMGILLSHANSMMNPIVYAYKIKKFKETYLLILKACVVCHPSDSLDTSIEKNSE
Method: as §1, §2, §3, §4, §5, §6

[4] = biological target: T4, 5HT2B receptor (Homo sapiens, UniProt P41595); experiment: PDSP off-target radioligand binding, 5HT2B; details: PDSP radioligand binding inhibition
T4 construct: PDSP (screening service)
Method: (§9) . Off-target binding activities at 45 diverse receptors were determined by PDSP[25] for selected compounds: 6c and 13 (ESI ^†). […]; 1.92 μM, 5HT2B receptor. Thus, the primary amine precursor of the fluorescent conjugates 10–12 was not promiscuous in its interaction with other proteins, i.e. this chemical series is not associated with pan-assay interference compounds.[26]
(§10) Chinese hamster ovary (CHO) cells stably expressing the human A2AAR were cultured in Dulbecco's Modified Eagle Medium (Mediatech, Manassas, VA) supplemented with 10% fetal bovine serum, 100 units/ml penicillin, 100 µg/ml streptomycin and 2 µmol/ml glutamine. Cells were plated in 96-well plates in 100 µl medium. After 24 h, the medium was removed and cells were washed three times with 100 µl DMEM, containing 50 mM HEPES, pH 7.4. Cells were treated with antagonists (or medium for control) in the presence of rolipram (10 µM) and adenosine deaminase (3 units/ml) and 5 min later with agonist for 20 min. The reaction was terminated by removal of the supernatant, and cells were lysed upon the addition of 100 µl of lysis buffer (0.3% Tween-20). cAMP was measured using ALPHAScreen cAMP kits (PerkinElmer, Boston, MA) as instructed by the manufacturer.
(§11) Refer to: http://pdspdb.unc.edu for full list of comprehensive screen at 45 targets.
(§12) 5HT2A serotonin receptor: […]

[5] = biological target: T5, 5HT2A serotonin receptor (Homo sapiens, UniProt P28223); experiment: PDSP off-target radioligand binding, 5HT2A; details: PDSP radioligand binding inhibition
T5 construct: PDSP (screening service)
Method: as §9, §10, §11, §12

[6] = biological target: T1, A1AR; parameters: method as in earlier work; details: percent inhibition at 10 μM, 14 (Kumar et al. and Kecskés et al.); cited from earlier work
[7] = biological target: T3, A3AR; parameters: method as in earlier work; details: percent inhibition at 10 μM, 14 (Kumar et al. and Kecskés et al.); cited from earlier work
[8] = biological target: T6, mA2AAR (Mus musculus, UniProt Q60613); experiment: Competition radioligand binding, mA2AAR; details: mouse A2AAR, HEK-293 membranes, mean ± SEM; read-out: Affinity, Ki, A2A (m) (converted)
T6 construct: expressed in transfected cells; host or cells: HEK-293
Method: as §7, §8, §2, §3, §4, §5, §6

[9] = biological target: T7, mA1AR (Mus musculus, UniProt Q60612); experiment: Competition radioligand binding, mA1AR; details: mouse A1AR, percent inhibition at 10 μM
T7 construct: expressed in transfected cells; host or cells: HEK-293
T7 sequence (Q60612 1-326): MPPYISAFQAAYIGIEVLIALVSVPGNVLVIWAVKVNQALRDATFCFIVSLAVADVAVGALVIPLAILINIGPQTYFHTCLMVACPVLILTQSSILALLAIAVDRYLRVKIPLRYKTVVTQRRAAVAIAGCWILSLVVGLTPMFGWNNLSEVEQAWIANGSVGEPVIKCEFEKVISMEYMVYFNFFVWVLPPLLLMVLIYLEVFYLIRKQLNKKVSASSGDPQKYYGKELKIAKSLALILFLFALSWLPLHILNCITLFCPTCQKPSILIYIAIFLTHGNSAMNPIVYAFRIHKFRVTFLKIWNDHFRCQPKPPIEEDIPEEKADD
Method: as §1, §2, §3, §4, §5, §6

[10] = biological target: T8, mA3AR (Mus musculus, UniProt Q61618); experiment: Competition radioligand binding, mA3AR; details: mouse A3AR, percent inhibition at 10 μM; read-out: % inhib, A3 (m) (converted)
T8 construct: expressed in transfected cells; host or cells: HEK-293
T8 sequence (Q61618 1-319): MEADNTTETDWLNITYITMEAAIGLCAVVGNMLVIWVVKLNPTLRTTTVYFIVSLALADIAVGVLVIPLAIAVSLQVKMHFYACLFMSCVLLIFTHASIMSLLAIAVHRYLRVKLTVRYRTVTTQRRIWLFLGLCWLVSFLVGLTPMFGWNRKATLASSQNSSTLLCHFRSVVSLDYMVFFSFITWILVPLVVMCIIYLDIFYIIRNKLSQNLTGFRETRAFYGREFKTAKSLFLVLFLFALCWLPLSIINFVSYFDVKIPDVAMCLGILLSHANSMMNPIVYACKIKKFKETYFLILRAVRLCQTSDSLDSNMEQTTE
Method: as §1, §2, §3, §4, §5, §6

[11] = HEK-293 membranes, [125I]I-AB-MECA 0.2 nM, 1 h 25 °C, mean ± SEM, read-out: Affinity, Ki, A3

T2 sequence (P29274 whole entry): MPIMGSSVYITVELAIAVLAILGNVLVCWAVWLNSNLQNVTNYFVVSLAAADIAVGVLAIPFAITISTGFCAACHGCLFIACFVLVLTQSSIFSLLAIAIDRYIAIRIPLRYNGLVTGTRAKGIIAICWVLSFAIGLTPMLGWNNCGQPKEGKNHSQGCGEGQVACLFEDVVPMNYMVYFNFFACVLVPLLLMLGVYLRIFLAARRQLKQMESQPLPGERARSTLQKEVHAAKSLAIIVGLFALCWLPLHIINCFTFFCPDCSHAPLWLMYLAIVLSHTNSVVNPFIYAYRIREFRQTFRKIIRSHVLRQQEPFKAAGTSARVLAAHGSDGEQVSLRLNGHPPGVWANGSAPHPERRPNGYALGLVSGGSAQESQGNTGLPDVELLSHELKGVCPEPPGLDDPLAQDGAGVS
T4 sequence (P41595 whole entry): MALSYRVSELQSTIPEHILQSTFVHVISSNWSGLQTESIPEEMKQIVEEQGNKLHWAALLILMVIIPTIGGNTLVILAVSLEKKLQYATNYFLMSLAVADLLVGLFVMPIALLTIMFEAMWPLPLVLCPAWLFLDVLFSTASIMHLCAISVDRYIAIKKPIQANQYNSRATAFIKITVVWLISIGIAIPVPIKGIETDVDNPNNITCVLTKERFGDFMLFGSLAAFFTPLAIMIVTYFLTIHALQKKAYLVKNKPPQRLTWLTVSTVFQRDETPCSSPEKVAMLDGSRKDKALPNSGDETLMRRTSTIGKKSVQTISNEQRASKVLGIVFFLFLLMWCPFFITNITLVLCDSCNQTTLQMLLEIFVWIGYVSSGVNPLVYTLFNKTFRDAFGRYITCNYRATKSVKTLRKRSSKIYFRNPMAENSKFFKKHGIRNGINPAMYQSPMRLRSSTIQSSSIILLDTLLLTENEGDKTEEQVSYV
T6 sequence (Q60613 whole entry): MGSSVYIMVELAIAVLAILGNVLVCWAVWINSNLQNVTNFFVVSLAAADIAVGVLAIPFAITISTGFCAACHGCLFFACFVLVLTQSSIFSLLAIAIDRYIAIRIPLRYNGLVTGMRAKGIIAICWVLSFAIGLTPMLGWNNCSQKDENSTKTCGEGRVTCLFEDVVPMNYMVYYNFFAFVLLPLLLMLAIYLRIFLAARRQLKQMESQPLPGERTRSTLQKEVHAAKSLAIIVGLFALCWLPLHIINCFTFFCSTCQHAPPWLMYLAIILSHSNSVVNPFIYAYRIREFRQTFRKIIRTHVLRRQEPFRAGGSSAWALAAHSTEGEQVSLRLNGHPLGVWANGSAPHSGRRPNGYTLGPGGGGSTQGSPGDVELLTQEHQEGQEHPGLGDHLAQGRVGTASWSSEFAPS
T5 sequence (P28223 whole entry): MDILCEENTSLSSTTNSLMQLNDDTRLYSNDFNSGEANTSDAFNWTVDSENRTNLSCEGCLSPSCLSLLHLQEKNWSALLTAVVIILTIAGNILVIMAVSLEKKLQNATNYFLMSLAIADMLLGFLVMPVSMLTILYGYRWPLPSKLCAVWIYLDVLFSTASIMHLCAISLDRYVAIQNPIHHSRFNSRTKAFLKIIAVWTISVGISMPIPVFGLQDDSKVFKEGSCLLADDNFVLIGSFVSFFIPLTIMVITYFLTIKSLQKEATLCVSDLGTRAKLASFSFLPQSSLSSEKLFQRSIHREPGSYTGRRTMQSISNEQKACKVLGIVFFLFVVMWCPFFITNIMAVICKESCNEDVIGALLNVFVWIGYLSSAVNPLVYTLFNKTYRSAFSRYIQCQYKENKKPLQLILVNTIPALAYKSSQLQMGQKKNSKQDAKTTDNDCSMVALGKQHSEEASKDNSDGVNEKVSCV

Ki [1] [nM] | Ki [2] [nM] | Ki [3, 11] [nM] | Compound | % inhib, A1 [6] | % inhib, A3 [7] | other results
1300 ± 350 | 9.29 ± 7.92 | 2170 ± 660 | NCCCNC(=O)COc1ccc(CCCn2ncc3c2nc(N)n2nc(-c4ccco4)nc32)cc1 [6b] | – | – | –
2390 ± 100 | 6.46 ± 1.63 | 5990 ± 2900 | NCCCCNC(=O)COc1ccc(CCCn2ncc3c2nc(N)n2nc(-c4ccco4)nc32)cc1 [6c] | – | – | Ki [4]: 1920 nM; Ki [5]: 3360 nM; Ki ([3]; read-out: affinity for the hA3AR): 6000 nM
1910 ± 120 | 6.36 ± 3.58 | 656 ± 132 | NCCCCCNC(=O)COc1ccc(CCCn2ncc3c2nc(N)n2nc(-c4ccco4)nc32)cc1 [6d] | – | – | –
6500 ± 2830 | 22.8 ± 8.45 | 2070 ± 850 | NCCCCCCNC(=O)COc1ccc(CCCn2ncc3c2nc(N)n2nc(-c4ccco4)nc32)cc1 [6e] | – | – | –
– | – | – | COc1ccc(CCCn2ncc3c2nc(N)n2nc(-c4ccco4)nc32)cc1 [compound 3, 5-amino-7-(3-(4-methoxy)phenylpropyl)-2-(2-furyl)pyrazolo[4,3-e]-1,2,4-triazolo[1,5-c]pyrimidine] | (35 ± 5%) ^c | (67 ± 1%) ^c | –
– | – | – | N=c1ccc2c(-c3ccc(C(=O)NCCNC(=O)COc4ccc(CCCn5ncc6c5nc(N)n5nc(-c7ccco7)nc65)cc4)cc3C(=O)O)c3ccc(N)c(S(=O)(=O)O)c3oc-2c1S(=O)(=O)O [compound 5] | (20 ± 3%) ^c | (4 ± 2%) ^c | –
– | – | – | Nc1nc2c(cnn2CCCc2ccc(O)cc2)c2nc(-c3ccco3)nn12 [compound 7] | (66 ± 2%) ^c | (34 ± 3%) ^c | –
– | 332 ± 165 | – | CC1(C)C(/C=C/C=C/C=C2/N(CCCS(=O)(=O)O)c3ccc(S(=O)(=O)O)cc3C2(C)CCCCCC(=O)NCCNC(=O)COc2ccc(CCCn3ncc4c3nc(N)n3nc(-c5ccco5)nc43)cc2)=[N+](CCCS(=O)(=O)O)c2ccc(S(=O)(=O)[O-])cc21 (stereo not drawn) [compound 9] | – | – | Ki [8]: 458 nM; inhibition at 10 µM [9]: 3%; inhibition at 10 µM [1]: 13%; inhibition at 10 µM [10]: 4%; inhibition at 10 µM ([3]; [125I]I-AB-MECA 0.2 nM): 21%
– | 295 ± 176 | – | CC1(C)C(/C=C/C=C/C=C2/N(CCCS(=O)(=O)O)c3ccc(S(=O)(=O)O)cc3C2(C)CCCCCC(=O)NCCCCNC(=O)COc2ccc(CCCn3ncc4c3nc(N)n3nc(-c5ccco5)nc43)cc2)=[N+](CCCS(=O)(=O)O)c2ccc(S(=O)(=O)[O-])cc21 (stereo not drawn) [compound 10] | – | – | inhibition at 10 µM [1]: 20%; inhibition at 10 µM ([3]; [125I]I-AB-MECA 0.2 nM): 21%
